In data set [1] the test system is Thermoascus aurantiacus catalase. The settings on record: cited from earlier work.
The test system of data set [2] is E. coli catalase or catalase-peroxidase. Particulars: Table 3; cited from earlier work.
Data set [3] relates to Vitreoscilla sp. catalase or catalase-peroxidase. The settings on record: Table 3; cited from earlier work.
Data set [4] has as its system R. capsulatus catalase or catalase-peroxidase. The settings on record: Table 3; cited from earlier work.
Data set [5] has as its target T1, Thermus brockianus catalase (SEQ ID NO:2, SEQ ID NO:5) (Thermus brockianus, UniProt A0ABM7XHT8).
T1 construct: in solution and immobilized on Eupergit C
T1 sequence (A0ABM7XHT8 6-291): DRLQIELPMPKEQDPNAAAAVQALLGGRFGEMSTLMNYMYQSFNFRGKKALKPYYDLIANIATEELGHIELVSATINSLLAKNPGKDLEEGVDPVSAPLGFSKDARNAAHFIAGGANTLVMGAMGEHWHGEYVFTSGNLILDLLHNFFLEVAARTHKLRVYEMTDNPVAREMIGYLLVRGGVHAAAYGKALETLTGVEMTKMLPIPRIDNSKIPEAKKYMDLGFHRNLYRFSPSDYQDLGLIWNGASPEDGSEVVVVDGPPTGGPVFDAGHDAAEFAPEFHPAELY
In words: Michaelis-Menten kinetics of hydrogen peroxide decomposition (240 nm). It counts as biochemical. Particulars: for Vmax: 20 mM Tris pH 8, 70° C. The procedure: The buffer pH was adjusted to 8 at 70° C.
The constants were calculated by fitting the Michaelis-Menten equation to a plot of reaction velocity versus substrate concentration using nonlinear analysis (using GraFit Version 4, Erithacus Software Limited, Horley Surrey, U.K.). […] The enzyme was assayed as in Example I, except that it was preincubated with the inhibitor for 5 min prior to assay.
The turnover number was calculated assuming four active centers per catalase molecule.

Data set [6] concerns Thermoleophilum album catalase. The settings on record: cited from earlier work.
For data set [7], the system named is Bacillus sp. catalase or catalase-peroxidase. The settings on record: cited from earlier work.
Data set [8] deals with N. crassa catalase or catalase-peroxidase. The settings on record: cited from earlier work.
Another data set addresses Beef liver catalase (Bos taurus, UniProt P00432). The settings on record: Non-Immobilized Enzyme; inhibition observed at substrate concentrations above.
Data set [9] has as its system A. nidulans catalase or catalase-peroxidase. The settings on record: cited from earlier work.
Data set [10] deals with M. tuberculosis catalase or catalase-peroxidase. Particulars: cited from earlier work.
The subject of a further data set is T. brockianus catalase. It counts as biochemical, Thermus brockianus.
Data set [11] relates to Archaeoglobus fulgidus recombinant catalase-peroxidase (putative perA gene). The settings on record: in words; cited from earlier work.
Data set [12] concerns the target T1, Thermus brockianus catalase (SEQ ID NO:2, SEQ ID NO:5). In words: Peroxidase activity with peroxidase substrates. The settings on record: hydrogen peroxide 1 mM, 20 mM Tris pH 8.0, 70° C. Type of data set: biochemical. The procedure:
The reactions were monitored spectrophotometrically at 460 and 420 nm, respectively. The substrates were dissolved in 20 mM Tris buffer, pH 8.0, and the assays were conducted at 70° C.

Data set [13] in a line: Stability of immobilized catalase. Type of data set: physicochemical. Particulars: 70° C. The procedure:
For beef liver catalase, the stability at 70° C. and pH 10 increased from no stability to being stable for 5 minutes. The A. niger catalase was stable for at least 6 hours under these conditions. The stability of immobilized T. brockianus catalase is assayed as done with immobilized beef liver catalase.

Substrate in data set [14]: OO
In words: purified protein, by the assay type.

Where [15] appears, read: H2O2 concentration showing substrate inhibition.

Entries after “also recorded” stand apart in the source; their conditions may differ.

One may read the Km as the substrate concentration at which the rate is half of its maximum.

Sequence of Beef liver catalase (P00432 whole entry): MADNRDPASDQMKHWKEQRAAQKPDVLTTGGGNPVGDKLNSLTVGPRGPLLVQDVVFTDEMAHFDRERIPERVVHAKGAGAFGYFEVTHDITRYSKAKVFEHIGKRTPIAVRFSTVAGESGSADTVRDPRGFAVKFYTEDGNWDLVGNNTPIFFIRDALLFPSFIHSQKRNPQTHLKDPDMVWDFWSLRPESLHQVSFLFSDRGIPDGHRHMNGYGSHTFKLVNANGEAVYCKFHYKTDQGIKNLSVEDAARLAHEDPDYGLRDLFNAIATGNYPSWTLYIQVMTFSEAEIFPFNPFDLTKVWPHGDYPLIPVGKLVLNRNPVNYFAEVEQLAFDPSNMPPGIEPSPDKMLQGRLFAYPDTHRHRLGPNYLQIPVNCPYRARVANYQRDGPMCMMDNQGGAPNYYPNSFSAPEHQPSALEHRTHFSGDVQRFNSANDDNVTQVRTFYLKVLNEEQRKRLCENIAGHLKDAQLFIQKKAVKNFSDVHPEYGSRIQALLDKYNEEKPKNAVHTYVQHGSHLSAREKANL

Consider `OO` [hydrogen peroxide], for which the “H2O2 Inhibition” value is 60 mM in data set [1] (setting [15]); “no apparent substrate inhibition/inactivation; also recorded: not inhibited; also recorded: None^c” in data set [5] (no inhibition observed for H2O2 concentrations up to 450 mM, pH 8, 70° C.); 20 mM in data set [6] (setting [15]); 30 mM in data set [7] (setting [15]); “None^b” in [8] (no inhibition observed for H2O2 concentrations up to 200 mM); 10 mM in data set [9] (setting [15]). For the same molecule, the Kcat in [1] (Table 3) is 107000 s⁻¹; in data set [2] it was 16300 s⁻¹; in [3], 26700 s⁻¹; in [9] (Table 3), 7170 s⁻¹; in [10], 10100 s⁻¹. Further, the Km was 48 mM in data set [1] (Table 3); 3.9 mM in [2]; 16 mM in data set [3]; 4.2 mM in data set [4]; 15 mM in data set [6] (Table 3); 6.8 mM in data set [7] (Table 3). Further, the Km is 25 mM in data set [8] (Table 3), 4.3 mM in data set [9] (Table 3) and 5.2 mM in data set [10] (Table 3). For the same molecule, the Vmax in data set [5] (hydrogen peroxide 3 to 450 mM) was 20.3 mM/min·mg protein; in data set [5] (Table 3), 20.3 mM/min/mg; in data set [6] (Table 3), 2.3 mM/min/mg. Besides, the “turnover number (kcat)” value in [5] (calculated assuming four active centers per catalase molecule, pH 8, 70° C.) was 6000 s⁻¹. Also, the “substrate inhibition concentration (footnote b)” value at Beef liver catalase is recorded as “^bApproximated value - inhibition observed at substrate concentrations above 100 mM”.

Take `Nc1nc[nH]n1` [3-amino-1,2,4-triazole]: in the data set with T. brockianus catalase, the “inhibition of T. brockianus catalase” value is “completely inhibited” and the “inhibition of T. brockianus catalase (in words, no concentration given)” value is given as “inhibition”. Also, the “inhibition by 3-amino-1,2,4-triazole” value in data set [11] was “inhibited”.

For `COc1cc(-c2ccc(N)c(OC)c2)ccc1N` [o-dianisidine], the peroxidase activity result in data set [12] (substrate 0.5 mM, 460 nm) is given as “absence of peroxidase activity”.

On to `CCn1c(=NN=c2sc3cc(S(=O)(=O)O)ccc3n2CC)sc2cc(S(=O)(=O)O)ccc21` [2,2′-azino-bis(3-ethylbenzothiazoline-6-sulfonic acid)], for which, in data set [12] (substrate 10 mM, 420 nm), the peroxidase activity result is “absence of peroxidase activity”.

B1: Beef Liver: beef liver catalase, commercial comparison enzyme (protein, UniProt P00432 2-527, looked up)
Catalase: ADNRDPASDQMKHWKEQRAAQKPDVLTTGGGNPVGDKLNSLTVGPRGPLLVQDVVFTDEMAHFDRERIPERVVHAKGAGAFGYFEVTHDITRYSKAKVFEHIGKRTPIAVRFSTVAGESGSADTVRDPRGFAVKFYTEDGNWDLVGNNTPIFFIRDALLFPSFIHSQKRNPQTHLKDPDMVWDFWSLRPESLHQVSFLFSDRGIPDGHRHMNGYGSHTFKLVNANGEAVYCKFHYKTDQGIKNLSVEDAARLAHEDPDYGLRDLFNAIATGNYPSWTLYIQVMTFSEAEIFPFNPFDLTKVWPHGDYPLIPVGKLVLNRNPVNYFAEVEQLAFDPSNMPPGIEPSPDKMLQGRLFAYPDTHRHRLGPNYLQIPVNCPYRARVANYQRDGPMCMMDNQGGAPNYYPNSFSAPEHQPSALEHRTHFSGDVQRFNSANDDNVTQVRTFYLKVLNEEQRKRLCENIAGHLKDAQLFIQKKAVKNFSDVHPEYGSRIQALLDKYNEEKPKNAVHTYVQHGSHLSAREKANL
Consider B1, for which, in data set [13] (pH 10, before immobilization), the “stability, not immobilized” value was “no stability”. For the same molecule, the “time stable, immobilized enzyme” value in data set [13] (pH 10, immobilized) was found to be 5 min.

B2: Thermus brockianus catalase (SEQ ID NO:2, SEQ ID NO:5) (Thermus brockianus) (protein)
chain: T1 sequence (A0ABM7XHT8 6-291)
On to B2, for which the Km in [14] (other: 20 mM Tris pH 8, 70° C., hydrogen peroxide 3 to 450 mM, pH 8.0, 70.0 °C) is given as 35.5 mM; in [14] (other: Immobilized Enzyme, packed column, PBS pH 7.2, 20 mL/min, optimum temperature, pH 7.2) it was 17 mM; in data set [14] (other: Non-Immobilized Enzyme, optimum temperature and pH), 35 mM.

Source of the values: patent publication US20050112742A1, “High temperature and alkaline stable catalase” (priority 2003, published 2005).
